The values that follow come from PubChem BioAssay (NCI).

Among the test systems are HT29 colon; M14 melanoma; MALME-3M melanoma; OVCAR-8 ovarian; UO-31 renal; SR leukemia; NCI/ADR-RES ovarian; OVCAR-4 ovarian; NCI-H522 lung; K-562 leukemia.
Holding throughout (assay): inhibition of tumour cell growth, NCI panel, 48 h

Values joined by “and” are separate entries in the source; they are usually repeats but may differ in a detail not shown here. Equal entries are not always repeated.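 Following 48 hours of exposure in 96-well plates, responses at five concentrations were used to interpolate endpoints linearly. The concentration for 50% growth inhibition is given as GI50. Definition used: TGI = concentration required for complete inhibition of growth.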

In the case of `CSc1nc(N)c2c(n1)NC(c1ccccc1)C1CCc3ccccc3C1=N2` (stereo not given), the GI50 with HT29 colon was 7.63 µM; in the assay with M14 melanoma, 11.9 µM; with MALME-3M melanoma, above 100 µM; in the assay on OVCAR-8 ovarian, 5.39 µM; with UO-31 renal it was 0.737 µM; in the assay on SR leukemia, 1.65 µM. Also, the GI50 with NCI/ADR-RES ovarian is 5.58 µM; in the assay on OVCAR-4 ovarian, 4.38 µM; in the assay on NCI-H522 lung, 2.59 µM; in the assay on K-562 leukemia, 4.12 µM. The TGI was above 100 µM in the assay on HT29 colon; above 100 µM in the assay on M14 melanoma; above 100 µM in the assay on MALME-3M melanoma; above 100 µM in the assay with OVCAR-8 ovarian; 9.72 µM with UO-31 renal; 5.54 µM in the assay with SR leukemia. Moreover, the TGI in the assay on NCI/ADR-RES ovarian was above 100 µM; with OVCAR-4 ovarian, above 100 µM; with NCI-H522 lung, 8.84 µM; in the assay on K-562 leukemia, above 100 µM.

`CC1(C)CC(=O)c2c(ccc(C(=O)C[C@@H](N)CO)c2N)O1`: the GI50 in the assay on HT29 colon was 0.34 µM; with M14 melanoma, 0.664 µM; in the assay with MALME-3M melanoma it was 12.5 µM; with OVCAR-8 ovarian it was 1.08 µM; in the assay on UO-31 renal it was 1.1 µM; in the assay on SR leukemia it was 0.15 µM. The GI50 with NCI/ADR-RES ovarian is 2.55 µM; in the assay with OVCAR-4 ovarian, 17.7 µM; in the assay with NCI-H522 lung it was 0.919 µM; with K-562 leukemia, 0.531 µM. Further, the TGI in the assay with HT29 colon is above 91.1 µM; in the assay with M14 melanoma it was 8.41 µM; in the assay with MALME-3M melanoma, above 76.9 µM; with OVCAR-8 ovarian, above 69.6 µM; in the assay on UO-31 renal, above 100 µM; in the assay with NCI/ADR-RES ovarian it was above 100 µM. Further, the TGI in the assay with OVCAR-4 ovarian is above 100 µM; in the assay with NCI-H522 lung it was 15.3 µM; in the assay on K-562 leukemia, above 100 µM.

As to `O=C(Nc1cccc(-n2cc(-c3ccncc3)c(-c3ccc(O)c(Cl)c3)n2)c1)c1ccc(Cl)c(Cl)c1`, the GI50 in the assay with HT29 colon is 26 µM; in the assay on M14 melanoma, 5.26 µM; with MALME-3M melanoma, 3.58 µM; in the assay on OVCAR-8 ovarian, 5.06 µM; in the assay with UO-31 renal, 4.5 µM; in the assay on SR leukemia it was 3.57 µM. Further, the GI50 with NCI/ADR-RES ovarian is 5.26 µM; in the assay with OVCAR-4 ovarian it was 9.9 µM; with NCI-H522 lung, 4.13 µM; in the assay on K-562 leukemia it was 3.48 µM. Further, the TGI with HT29 colon is above 100 µM; with M14 melanoma, 54.6 µM; in the assay on MALME-3M melanoma, 21 µM; with OVCAR-8 ovarian, above 100 µM; with UO-31 renal it was above 100 µM; in the assay with SR leukemia, above 100 µM. The TGI in the assay on NCI/ADR-RES ovarian is 65.5 µM; with OVCAR-4 ovarian it was above 100 µM; in the assay on NCI-H522 lung, 74.4 µM; in the assay with K-562 leukemia, above 100 µM.

As to `COc1cc(C2C3=C(COC3=O)Nc3cc4c(cc32)OCO4)cc2c1OCO2` (stereo not given), the GI50 in the assay on HT29 colon is 0.0722 µM; in the assay on M14 melanoma, 0.03 µM; with MALME-3M melanoma, above 100 µM; in the assay with OVCAR-8 ovarian, 0.102 µM; with UO-31 renal, 0.332 µM; in the assay with SR leukemia, 0.0479 µM. Further, the GI50 in the assay on NCI/ADR-RES ovarian was 0.0785 µM; with OVCAR-4 ovarian, 0.0982 µM; with NCI-H522 lung, 0.0219 µM; in the assay with K-562 leukemia it was 0.034 µM. Further, the TGI in the assay on HT29 colon is 3.21 µM; in the assay on M14 melanoma, 0.0878 µM; in the assay with MALME-3M melanoma, above 100 µM; in the assay with OVCAR-8 ovarian it was above 100 µM; in the assay with UO-31 renal it was above 100 µM; with SR leukemia, above 100 µM. The TGI in the assay on NCI/ADR-RES ovarian is 0.606 µM; in the assay on OVCAR-4 ovarian, above 100 µM; in the assay on NCI-H522 lung, 0.0665 µM; in the assay with K-562 leukemia, above 100 µM.

On to `Oc1ccccc1C=Nc1ccccc1N=Cc1ccccc1O.[Cu+2]`, for which the GI50 with HT29 colon is 13.7 µM; in the assay on M14 melanoma, 4.33 µM; in the assay on MALME-3M melanoma it was 6.52 µM; in the assay with OVCAR-8 ovarian, 2.48 µM; in the assay on UO-31 renal it was 3 µM; with SR leukemia it was 13.2 µM. Besides, the GI50 in the assay with NCI/ADR-RES ovarian is 2.25 µM; in the assay with OVCAR-4 ovarian, 5.79 µM; in the assay on NCI-H522 lung, 2.55 µM; in the assay with K-562 leukemia, 4.44 µM. In addition, the TGI in the assay on HT29 colon is 32 µM; in the assay on M14 melanoma, 16.4 µM; with MALME-3M melanoma, 21.2 µM; in the assay with OVCAR-8 ovarian, 8.44 µM; with UO-31 renal it was 15.6 µM; in the assay with SR leukemia, above 100 µM. The TGI in the assay on NCI/ADR-RES ovarian is 8.38 µM; in the assay with OVCAR-4 ovarian, 19 µM; in the assay with NCI-H522 lung, 12.3 µM; with K-562 leukemia, above 100 µM.

On to `O=C1N[C@H]2[C@H](O)[C@H](O)[C@@H](O)[C@H](O)[C@@H]2c2cc3c(c(O)c21)OCO3`, for which the GI50 in the assay with HT29 colon is 0.3 µM and 0.36 µM; in the assay with M14 melanoma, 0.229 µM and 0.0346 µM; in the assay on MALME-3M melanoma it was 0.266 µM and 0.275 µM; with OVCAR-8 ovarian it was 0.231 µM and 0.225 µM; in the assay with UO-31 renal it was 0.333 µM and 0.522 µM; with SR leukemia, 0.0248 µM. For the same compound, the GI50 is 0.0241 µM in the assay with NCI/ADR-RES ovarian; 0.189 µM and 0.373 µM in the assay with OVCAR-4 ovarian; 0.143 µM in the assay on NCI-H522 lung; 0.216 µM and 0.214 µM with K-562 leukemia. Moreover, the TGI in the assay on HT29 colon was 3.84 µM and 0.44 µM; in the assay on OVCAR-8 ovarian it was 1.89 µM and 0.195 µM; with UO-31 renal, 2.78 µM and 0.398 µM; in the assay on SR leukemia, 0.511 µM and 3.31 µM; in the assay with NCI/ADR-RES ovarian, 0.189 µM and 0.523 µM; in the assay with NCI-H522 lung, 0.886 µM and 0.141 µM.

Turning to `CC(OC(=O)N(N(CCCl)S(C)(=O)=O)S(C)(=O)=O)c1ccc([N+](=O)[O-])cc1` (stereo not given), the GI50 is 65 µM in the assay on HT29 colon; 49.4 µM with M14 melanoma; 41.5 µM with MALME-3M melanoma; above 100 µM in the assay on OVCAR-8 ovarian; above 100 µM in the assay with UO-31 renal; 26.7 µM with SR leukemia. In addition, the GI50 with NCI/ADR-RES ovarian was 35.4 µM; in the assay with OVCAR-4 ovarian, 73.5 µM; in the assay with NCI-H522 lung, 51.4 µM; in the assay on K-562 leukemia, 35.7 µM. In addition, the TGI with HT29 colon, in the assay with M14 melanoma, with MALME-3M melanoma, in the assay on OVCAR-8 ovarian, in the assay on UO-31 renal and with SR leukemia was above 100 µM each time. The TGI with NCI/ADR-RES ovarian, in the assay with OVCAR-4 ovarian, in the assay with NCI-H522 lung and with K-562 leukemia was above 100 µM in each case.

In the case of `CN(C)c1ccc(C(=C2C=CC(=[N+](C)C)C=C2)c2ccccc2Cl)cc1`, the GI50 in the assay with HT29 colon is 0.167 µM; with M14 melanoma, 0.274 µM; in the assay on MALME-3M melanoma, 0.266 µM; in the assay with OVCAR-8 ovarian, 0.306 µM; in the assay on UO-31 renal it was 0.762 µM; with SR leukemia, 0.235 µM. The GI50 was 1.89 µM in the assay with NCI/ADR-RES ovarian, 0.36 µM in the assay on OVCAR-4 ovarian, 0.268 µM in the assay with NCI-H522 lung and 0.244 µM in the assay with K-562 leukemia. Also, the TGI with HT29 colon is 1.03 µM; in the assay with M14 melanoma, 0.942 µM; in the assay on MALME-3M melanoma it was 1.05 µM; in the assay with OVCAR-8 ovarian, 1.66 µM; in the assay with UO-31 renal, 6.49 µM; in the assay with SR leukemia, 0.898 µM. For the same compound, the TGI in the assay with NCI/ADR-RES ovarian turned out to be 14.8 µM; with OVCAR-4 ovarian, 1.6 µM; with NCI-H522 lung, 0.925 µM; in the assay on K-562 leukemia it was 3.79 µM.
